Key:
Assay type in all cases: cell-based
[1] = system: Normal Human Dermal Fibroblast (NHDF); assay: fibroblast to myofibroblast differentiation of NHDF (markers αSMA, PI16, ACTC1 by RT-qPCR, αSMA positive cells)
Protocol: (§1) NHDF, isolated from human explants, were purchased from Promocell. NHDF were cultivated in DMEM-F12 (Invitrogen), supplemented with 10% FCS (Invitrogen, 5 μg/mL of insulin and 1 ng/mL of b-FGF (PromoKine)).
(§2) For experiments, cells were deprived of insulin and b-FGF during 48 hours. Then, the cells were cultivated on collagen coated culture plates in DMEM-F12, supplemented with 10% FCS, 10 ng/mL of TGF-β1 (Promocell) for 4 days. Four points were tested in order to appreciate the effect of exudate on fibroblast differentiation: untreated cells (T−E−), fibroblasts treated with TGF-β1 (T+E−), cells treated with exudate (T−E+) and finally fibroblasts treated with TGF-β1 and exudate at the same time (T+E+).
The efficiency of fibroblast differentiation was estimated by analyzing the expression of the myofibroblast marker alpha smooth muscle actin (αSMA).
(§3) After four days of experiment, treated fibroblasts were lysed with TRIzol Reagent (Invitrogen) and stored at −80° C. Then RNA was purified using chloroform and precipitated by isopropanol. Total RNA was quantified on the NanoDrop 2000c Spectrophotometer (Thermo Scientific). Reverse transcription of 500 ng total RNA to cDNA was done with oligot dT (Invitrogen) using SuperScript III RT (Invitrogen) and RNAse OUT (Invitrogen). The cDNA was store at −20° C.
(§4) Quantitative real-time PCR (RT-qPCR) was done using 5 μL of 1:20 diluted cDNA on the LightCycler480 system (Roche) using Maxima SYBR Green qPCR Master Mix (Fermentas). Forward and reverse primers for αSMA were designed by Eurofins (MWG, αSMA forward: […] (SEQ ID NO:9), αSMA reverse: […] (SEQ ID NO:10)) and a 100 μM stock was stored at −20° C. Forward and reverse primer pairs were used for each RT-qPCR reaction. The cycling conditions were as follows: an initial 95° C. for 10 minutes, followed by 45 cycles of 95° C. for 15 sec, 58° C. for 30 sec, 72° C. for 20 sec. LightCycler 480 SW 1.5 was used to evaluate the TM curves, to determine the Cp and to approximate the relative concentration for each amplification reaction.
Cells grown in collagen coated culture dishes, and treated as previously described, were fixed with 4% paraformaldehyde (PFA) in PBS for 15 minutes and permeabilized with 2.5% Triton X-100 (Euromedex, 2000-B) in PBS for 3 minutes. After saturation with 5% BSA in PBS, cells were stained for α-SMA (Abcam, ab5694) and for DNA (DAPI). As secondary antibody, CyTM3 conjugated anti rabbit (GE Healthcare, PA43004) was used. […] To estimate the percentage of fibroblast differentiation due to the different treatments, the total number of cells per field was determined by the DAPI, and myofibroblasts, differentiated fibroblasts, were counted using the α-SMA staining. […]

[2] = system: Normal Human Dermal Fibroblast (NHDF); assay: transcription factor mRNA levels in treated NHDF by RT-qPCR; settings: Gant 61
Protocol: FIG. 6: Graphic representation of the TCF4 (a), EGR2 (b), SOX9 (c), STAT4 (d), FOXS1 (e), PPARG (f), MAF (g), MEOX2 (h), and SIX2 (i) mRNA levels after NHDF (donor A) treatment for 48 h (light grey) or 72 h (dark grey) either with mock siRNA or siRNA directed against different TF mRNA (SOX9, EGR2, TCF4, or FOXS1) and concomitantly treated with TGF-β. For all graphs, the mock siRNA treated with TGF-β (T+E) condition was set to 100% for each time of treatment (48 h and 72 h).
FIG. 10: Graphic representation of the αSMA, GLI1, SOX9 and MAF mRNA levels assessed by RT-qPCR of NHDFs treated by Gant 61.
as §3, §4

[3] = system: Normal Human Dermal Fibroblast (NHDF); assay: ex vivo model of chronic wounds: NHDF differentiation in presence of chronic wound exudate; settings: TGFβ, exudate and Am580 versus same condition without Am580
Protocol: as §1
To collect exudates, two patients with mixed ulcers were recruited. For patient selection, it was decided to exclude any other comorbidity factor potentially involved in wound etiology: diabetes, peripheral arterial diseases, malnutrition. Exudates were collected from negative pressure therapy. All the exudates were centrifuged at 1,500×g for 3 minutes to remove cell debris. The supernatant was filtered and stored at −80° C. until use. Aliquots were used to determine protein concentration according to BCA method (Sigma).
as §2
For the chronic or non-healing wound model, chronic wound exudates were added to cell cultures (500 μg/mL of total proteins of exudate). […]

SMILES | differentiation shown by α-SMA mRNA ([1]; Gant 61 4 μM) | MAF mRNA [2] | SOX9 mRNA [2] | expression of GLI1 (mRNA) [2] | differentiation followed with αSMA mRNA ([1]; Am580 5 nM in presence of TGFβ) | differentiation followed with ACTC1 mRNA ([1]; Am580 in presence of TGFβ) | differentiation followed with PI16 mRNA ([1]; Am580 in presence of TGFβ) | PI16 mRNA [3] | αSMA mRNA [3]
CN(C)c1ccccc1CN1CCCN(Cc2ccccc2N(C)C)C1c1ccncc1 [Gant 61] | upregulation | decrease | increase | upregulate |  |  |  |  | 
CC1(C)CCC(C)(C)c2cc(C(=O)Nc3ccc(C(=O)O)cc3)ccc21 [Am580, 4-[(5,6,7,8-Tetrahydro-5,5,8,8-tetramethyl-2-naphthalenyl)carboxamido]benzoic acid] |  |  |  |  | increase differentiation | increase differentiation | increase differentiation | increase | increase
